The text below walks through data of patent US20170224711A1, “COMPOSITIONS AND METHODS FOR THE TREATMENT OF NEURODEGENERATIVE DISEASES” (University of Houston System, priority 2014, published 2017).

In assay [1] the test system is Human Ovarian cancer cells, A2780. Description: CHIP array: whole genome expression (HumanHT-12 v4.0 BeadChip). The format is cell-based. The note with it: 12 or 24 hours, vs control or untreated cells; for Fold change expression of ATF / Fold change expression of NMDAR2C: direction ↑; for Fold change expression of RAB27A / Fold change expression of SLC39A3: direction ↓. The protocol: Human Ovarian cancer cells, A2780, were treated with compound and different concentration for 12 or 24 hours. The total RNA from the treated human cells were extracted by Trizol (Invitrogen) and purified by Rneasy Mini kit (Qiagen, Valencia, Calif.). The concentration and integrity of all RNA samples were assessed using the NanoDrop ND-2000 spectrophotometer (NanoDrop Technologies, Wilmington, Del.) and the Bioanalyzer 2100 system (Agilent Technologies, Santa Clara, Calif.). 1 ug of total RNA from each sample were subjected to whole-genome gene expression analysis at the Microarray Core Facility of University of Texas Southwestern Medical Center (https://microarray.swmed.edu) using the HumanHT-12 v4.0 BeadChip (Illumina, San Diego, Calif.) according to the manufacturer's instructions. Microarray data were extracted using BeadStudio v3.1 software, background-subtracted, and normalized using a cubic spline algorithm. Genes differentially expressed between groups were identified using the Illumina custom error model implemented in BeadStudio. […] The pathways and interaction networks that the genes involved were further analyzed by Ingenuity Pathyway analysis software (www.ingenuity.com).
The treatment of A2780, human ovarian cancer cell line at different concentrations were examined for the differential gene expression compared to the whole human genome and compared to untreated samples (controls). A representative heat map reflecting the fold change in expressions of genes modulated by RRD2 involved in neurodegenerative diseases is shown in FIG. 3. […] These genes are implicated in neurological disorders and neurodegenerative diseases and the modulation of these genes by Phosphaplatins is significant for providing neuroprotection.

Assay [2] relates to A2780 ovarian cancer cells. Put plainly: Western blot protein expression. The note with it: for ATF3 protein expression compared to control / HPD protein expression compared to control / NMDAR2C protein expression compared to control / RAB27A protein expression compared to control / SLC39A3 (ZIP3) protein expression compared to control / SQSTM1 protein expression compared to control: 24 hrs treatment, Western blot. It is filed as cell-based, human. How it is done:
A2780 ovarian cancer cells cell line was cultured in 60 or 100 mm^3 cell culture dishes. Once the plated were 80% confluent, the cells were incubated in the presence and absence of either R,R-D2 or R,R-D4. After 24 hrs of drug treatment, proteins were extracted from the cells using 200-500 μl of either RIPA or MPER protein extraction reagent buffer or both. Halt protease inhibitor cocktail from Thermo Fisher was added to the protein extraction reagents. The protein concentration was measured using BCA kit from Promega. The freshly extracted proteins (40 to 50 μg) were run on a 4-12% or 4-20% tris-glycine gels, at 120 V for 2 to 3 hours after which the proteins were transferred onto nitrocellulose membranes for one hour. Then the blots were incubated in 5% milk. The following primary antibodies were incubated overnight in 5% milk. These antibodies include: mouse anti-rabbit IgG-FITC, mouse anti-goat IgG-PE, anti-mouse IgG2a-PE, SQSTM1 (D-3), Egr-2 (H-220), ZIP3 (D-14), TOX1 (T-12), ATF-3 (H-90), NMDAμ4 (C-20), HPPD (H-300), Fos B (C-20), PPT2 (C-18), Hep G2 Cell Lysate, TMEM106B (C-12), xCT (Q-18) after which the proteins were detected by species-specific HRP-conjugated secondary antibody using ECL chemiluminescence kit purchased from GE health care.
To confirm that the modulation of the genes listed in Table 1, following treatment with RRD2 and RRD4 in the human ovarian cancer cell line, A2780, also affects the protein expression of these genes, some representative genes from Table 1 were assessed for their corresponding protein expression as measured by Western Blot using protein specific antibodies. The protein expressions for HPD, SQSTM1, ATF3, NMDAR2C were higher compared to the control samples while RAB27A and SLC39A3 (ZIP3) expressions were lower than the control samples following treatment with the aforementioned compounds (FIGS. 4A-4B). Note that HPD and NMDAR2C were calibrated against both actin and GADPH (FIG. 4C). As indicated in the Tables, overexpressed proteins/genes are implicated in protecting neurons from a variety of neurodegenerative diseases.
In general terms: A western blot detects proteins with antibodies after separation by electrophoresis.

For assay [3], the system named is hippocampal slices, CA1 pyramidale layer. Description: Whole cell current-clamp recordings of action potentials in hippocampal slices. It is filed as cell-based. The note with it: rat hippocampal slices perfused with 20 μM, vs control, N=6. How it is done: (§1) Sprague-Dawley male rats (P14-18) were deeply anesthetized with ether and after the decapitation, the brains were removed rapidly and laced in the fresh high sucrose dissection solution. After hippocampus isolation, hippocampal slices ([…]) were prepared using a Vibratome. The prepared slices were incubated in the artificial cerebrospinal fluid (ACSF) (pH 7.3) for half an hour. After incubating period, slices were transferred to recording chamber while oxygenated ACSF was continuously perfused constantly with the rate of 2 ml/min at 30° C. Borosilicate glass recording electrodes were filled with 0.9% NaCl (1-2 MΩ) and used for extracellular field potential recordings. Extracellular recordings were done from the border area between radiatum and pyramidale layers. Filled micropipettes (4-7 MΩ) containing intracellular solution were used for whole cell current-clamp recordings in the CA1 pyramidale layer. To elicit action potential activity, depolarizing square wave current pulses incremented by 20 pA were injected into the somas for 500-1000 ms, followed by 10 ms return to the baseline holding membrane potential (−80 mV). In addition, to square wave current pulses, slow depolarizing ramp-like current injections were used to quantify action potential threshold values. Neuronal membrane and field potential recordings were performed in control and in the RRD4 groups. RDD4 group brain slices were perfused with 20 μM RRD4. Zero magnesium model of inducing epileptiform activities was used in these experiments. In the treated group slices were incubated in 20 μM RRD4 for 15 minutes, and then were exposed to zero magnesium solution.
The neurodegeneration observed in many diseases has been associated with a progressive decrease in neuronal activity and synaptic dismantling is associated with many neurodegenerative diseases. A potential strategy for preventing and/or halting neurodegenerative disease is by modulating intrinsic properties of individual neurons. Applicants observed that RRD4 pretreatment increased action potential threshold (FIG. 5). Action potential threshold was measured at the beginning of the sharp upward rise of the depolarizing phase of the action potential. (*P<0.05). Based on the data, RRD4 increases action potential (AP) threshold and decreases its amplitude. […] Further, pretreated slices with RRD4 had lower peak potential amplitude (FIG. 6). Mean values for the AP amplitude is voltage difference in 10-90% rise time in each action potential. (*P<0.05).

For assay [4], the system named is hippocampal slices. Description: Zero magnesium model of epileptiform activity in hippocampal slices. The format is cell-based, rat. Particulars: slices incubated in 20 μM for 15 minutes, then zero magnesium solution, N=6. How it is done:
as §1, with “RDD4 group brain slices were perfused with 20 μM RRD4. Zero magnesium model of inducing epileptiform activities was used in these experiments. In the treated group slices were incubated in 20 μM RRD4 for 15 minutes, and then were exposed to zero magnesium solution.” left out

Entries after “also recorded” stand apart in the source; their conditions may differ.

For the compound `N[C@@H]1CCCC[C@H]1N.O=P([O-])(O)OP(=O)([O-])O.[Pt+2]` [RRD2], in assay [1], the “Fold change expression of ATF” value is listed as 10↑ fold, the “Fold change expression of NMDAR2C” value is listed as 8↑ fold, the “Fold change expression of RAB27A” value was 1.7↓ fold and the “Fold change expression of SLC39A3” value is 2↓ fold. Moreover, the “RAB27A protein expression vs untreated cells” value in assay [2] (20 μM, FIG. 4A) is recorded as “overexpressed in untreated cells as compared to cells treated”. Further, in assay [2], the “ATF3 protein expression compared to control” value was “higher”, the “HPD protein expression compared to control” value was “higher”, the “NMDAR2C protein expression compared to control” value is recorded as “higher” and the “RAB27A protein expression compared to control” value is “lower”. Moreover, in assay [2], the “SLC39A3 (ZIP3) protein expression compared to control” value is on record as “lower” and the “SQSTM1 protein expression compared to control” value was “higher”.
For `NC1CCCCC1N.O=P1(O)OP(=O)(O)[O][Pt]([OH])([OH])[O]1` [RRD4], in assay [1], the “Fold change expression of ATF” value is on record as 10↑ fold, the “Fold change expression of NMDAR2C” value is recorded as 8↑ fold, the “Fold change expression of RAB27A” value is recorded as 1.7↓ fold and the “Fold change expression of SLC39A3” value is 2↓ fold. Besides, in assay [2] (25 μM, FIG. 4A), the “RAB27A protein expression vs untreated cells” value was “overexpressed in untreated cells as compared to cells treated” and the “SQSTM protein expression vs untreated cells” value is “enhanced expression”. In assay [2], the “ATF3 protein expression compared to control” value was “higher”, the “HPD protein expression compared to control” value is “higher”, the “NMDAR2C protein expression compared to control” value is recorded as “higher” and the “RAB27A protein expression compared to control” value is “lower”. Also, in assay [2], the “SLC39A3 (ZIP3) protein expression compared to control” value was “lower” and the “SQSTM1 protein expression compared to control” value is reported as “higher”. Further, in assay [3], the “Action potential (AP) amplitude” value is recorded as “lower; also recorded: decreased significantly”, the “Action potential (AP) threshold” value is recorded as “increased; also recorded: raised”, the Input resistance result is “no effect” and the “Membrane depolarization in treated cells” value was “significantly more depolarized”. In addition, the “Time to seizure onset (seizure threshold, first seizure formation)” value in assay [4] is recorded as “significant effect in delaying; also recorded: significantly delayed”.
